Compound `Cc1cc(SC(C)c2ccc(-c3ccc(C(F)(F)F)cc3)nc2C)ccc1OCC(=O)O` (racemic) [Example 17, [rac]-(2-Methyl-4-{1-[2-methyl-6-(4-trifluoromethyl-phenyl)-pyridin-3-yl]-ethylsulfanyl}-phenoxy)-acetic acid] has a melting point of 115 to 117 °C.
In the case of `CCC(Sc1ccc(OCC(=O)O)c(C)c1)c1ccc(-c2ccc(C(F)(F)F)cc2)nc1C` (racemic) [Example 18, [rac]-(2-Methyl-4-{1-[2-methyl-6-(4-trifluoromethyl-phenyl)-pyridin-3-yl]-propylsulfanyl}-phenoxy)-acetic acid], the melting point is reported as 126 to 128 °C.
Work on `COCCCc1cc(N(C)Cc2ccc(-c3ccc(C(F)(F)F)cc3)nc2C)ccc1OCC(=O)O` [Example 1, (2-(3-Methoxy-propyl)-4-{methyl-[2-methyl-6-(4-trifluoromethyl-phenyl)-pyridin-3-ylmethyl]-amino}-phenoxy)-acetic acid] yielded a melting point of 72 to 73 °C.
With `Cc1cc(N(C)Cc2ccc(-c3ccc(C(F)(F)F)cc3)nc2C)cc(C)c1OCC(=O)O` [Example 7, (2,6-Dimethyl-4-{methyl-[2-methyl-6-(4-trifluoromethyl-phenyl)-pyridin-3-ylmethyl]-amino}-phenoxy)-acetic acid] the melting point was 137 to 138 °C.
Compound `Cc1cc(OCc2ccc(-c3ccc(C(F)(F)F)cc3)nc2)ccc1OC(C)(C)C(=O)O` [Example 9, 2-Methyl-2-{2-methyl-4-[6-(4-trifluoromethyl-phenyl)-pyridin-3-ylmethoxy]-phenoxy}-propionic acid] has a melting point of 149 to 151 °C.
In the case of `Cc1cc(OCc2ccc(-c3ccc(OC(F)(F)F)cc3)nc2)ccc1OC(C)(C)C(=O)O` [Example 10, 2-Methyl-2-{2-methyl-4-[6-(4-trifluoromethoxy-phenyl)-pyridin-3-ylmethoxy]-phenoxy}-propionic acid], the melting point is reported as 146 to 148 °C.
Work on `Cc1cc(N(C)Cc2ccc(-c3ccc(Cl)cc3)nc2)ccc1OCC(=O)O` [Example 12, (4-{[6-(4-Chloro-phenyl)-pyridin-3-ylmethyl]-methyl-amino}-2-methyl-phenoxy)-acetic acid] yielded a melting point of 174 to 176 °C.
In the case of `Cc1cc(N(C)Cc2ccc(-c3ccc(OC(F)(F)F)cc3)nc2)ccc1OCC(=O)O` [Example 13, (2-Methyl-4-{methyl-[6-(4-trifluoromethoxy-phenyl)-pyridin-3-ylmethyl]-amino}-phenoxy)-acetic acid], the melting point is reported as 137 to 138 °C.
Compound `COCCCc1cc(N(C)Cc2ccc(-c3ccc(OC(F)(F)F)cc3)nc2)ccc1OCC(=O)O` [Example 14, (2-(3-Methoxy-propyl)-4-{methyl-[6-(4-trifluoromethoxy-phenyl)-pyridin-3-ylmethyl]-amino}-phenoxy)-acetic acid] has a melting point of 73 to 75 °C.
For `Cc1cc(N(C)Cc2ccc(-c3ccc(C(F)(F)F)cc3)nc2)ccc1OCC(=O)O` [Example 15, (2-Methyl-4-{methyl-[6-(4-trifluoromethyl-phenyl)-pyridin-3-ylmethyl]-amino}-phenoxy)-acetic acid], the melting point was 199 °C.
Work on `COCCCc1cc(N(C)Cc2ccc(-c3ccc(C(F)(F)F)cc3)nc2)ccc1OCC(=O)O` [Example 16, (2-(3-Methoxy-propyl)-4-{methyl-[6-(4-trifluoromethyl-phenyl)-pyridin-3-ylmethyl]-amino}-phenoxy)-acetic acid] yielded a melting point of 72 to 76 °C.
Work on `Cc1cc(OCc2ccc(-c3ccc(F)c(C(F)(F)F)c3)nc2C)ccc1OC(C)(C)C(=O)O` [Example 24, 2-{4-[6-(4-Fluoro-3-trifluoromethyl-phenyl)-2-methyl-pyridin-3-ylmethoxy]-2-methyl-phenoxy}-2-methyl-propionic acid] yielded a melting point of 141 to 143 °C.
For `Cc1cc(OCc2ccc(-c3ccc(C(F)(F)F)cc3)nc2C)ccc1OC(C)(C)C(=O)O` [Example 34, 2-Methyl-2-{2-methyl-4-[2-methyl-6-(4-trifluoromethyl-phenyl)-pyridin-3-ylmethoxy]-phenoxy}-propionic acid], the melting point was 164 to 165 °C.

Source: patent publication US7115611B2, “Phenyl derivatives, their manufacture and use as pharmaceutical agents” (Hoffmann-la Roche Inc., priority 2003, dated 2006)
